Here are results for four molecules from ChEMBL document CHEMBL1151551, “An acid-cleavable linker stable at neutral pH that releases doxorubicin at lysosomal pH” (Bioorg Med Chem Lett, 1993).

The species entered for series [1] is Mus musculus. The experiment in a line: The compound was evaluated for half life (release of DOX) […] at 37 degree Celsius at the pH 7. The format is ADME.
The species entered for series [2] is Mus musculus. In words: The compound was evaluated for half life (release of DOX) […] at 37 degree Celsius at the pH 5. The format is ADME.

With `CCCCNC(=O)C1(C)CC(C)(C(=O)O)CC(C)(C(=O)NC2CC(O[C@H]3C[C@](O)(C(=O)CO)Cc4c(O)c5c(c(O)c43)C(=O)c3c(OC)cccc3C5=O)OC(C)C2O)C1` (some centres not stated), the T1/2 in the series listed under Mus musculus [1] is above 160 days; in the series listed under Mus musculus [2], 90 h. The corresponding values for `CCCCN(C)C(=O)C1(C)CC(C)(C(=O)O)CC(C)(C(=O)N(C(=O)C(F)(F)F)C2CC(O[C@H]3C[C@](O)(C(=O)CO)Cc4c(O)c5c(c(O)c43)C(=O)c3c(OC)cccc3C5=O)OC(C)C2O)C1` (some centres not stated) are above 174 days and above 174 h. In the series filed under Mus musculus [2], `COc1cccc2c1C(=O)c1c(O)c3c(c(O)c1C2=O)C[C@@](O)(C(=O)CO)C[C@@H]3OC1CC(NC(=O)C2(C)CC(C)(C(=O)O)CC(C)(C(=O)O)C2)C(O)C(C)O1` (some centres not stated) displayed a T1/2 of 30 h. On to `COC(=O)C1(C)CC(C)(C(=O)O)CC(C)(C(=O)NC2CC(O[C@H]3C[C@](O)(C(=O)CO)Cc4c(O)c5c(c(O)c43)C(=O)c3c(OC)cccc3C5=O)OC(C)C2O)C1` (some centres not stated), for which the T1/2 in the series listed under Mus musculus [1] is above 100 days; in the series listed under Mus musculus [2], 40 h.
